{"source": "patent US20050208147A1", "about": "“Isolation of bivittoside D from sea cucumber and activity thereof” (Council of Scientific and Industrial Research, priority 2004, published 2005)", "key": {"[1]": {"system": "Aspergillus niger, A. oryzae, Penicillium citrinum, P. chrysogenum, Mucor spinescens, Cladosporium herbarium, Rhodotorula rubra, Trichophyton mentagrophytes, T.", "conditions": "panel of eleven fungi; literature report; cited from earlier work"}, "Cryptococcus neoformans": {"system": "Cryptococcus neoformans", "assay": "In vitro antifungal MIC, broth micro-dilution (NCCLS M-27A)", "type": "cell-based", "description": "(§1) Extracts/fractions/pure compounds obtained from B. vitiensis were tested in in-vitro antifungal activity against five pathogenic fungi in terms of minimum inhibitory concentration (mic,mg/ml) following reference methods. Mics for yeasts: Candida albicans (ca), Cryptococcus neoformans (cn) and Sporothrix schenckii (spo) were determined by broth micro-dilution method according to guide lines of nccls documents m-27a1 (National Committee for Clinical Standards (1997) reference method for broth dilution. Antifungal susceptibility testing of yeast approved standards document m-27a, nccls, wayne, Pa.) In RPMI-1640 medium buffered at pH 7.0 with 0.165 m morpholine propane sulphonic acid (mops: Sigma USA moris; Mo.). Assays were performed in flat bottomed 96 wells microlitre plate. Stock solution of products were prepared in DMSO and diluted by two-fold serial dilution. The working suspension (0.5×103 to 2.5×103) of the innoculum, prepared spectrophotometrically (0.5 mc Farland turbidity standard) was made by a 1:50 dilution followed by a 1:20 dilution of the seeded broth in RPMI-1640. Suitable controls were maintained simultaneously. Plates were incubated at 35° C. and observed visually at 24 hr for ca and 48 hr cn and spo. The susceptibilities of molds Aspergillus fumigatus (af) and Frichophyton mentagrophytes (tm) were determined by the NCCLS proposed document m-38p2 (National Committee for Clinical laboratory Standards (1997) reference method for broth dilution antifungal susceptibility testing of Aspergillus, proposed standards document m-38 p, nccls, wayne, Pa.). In brief, cultures were grown on sabouraud dextrose agar at 35° C. until sporulation occurred. Spores were suspended in 0.85% normal saline and diluted in RPMI-1640 to yield 104 cf p/ml."}, "Sporothrix schenckii": {"system": "Sporothrix schenckii", "assay": "In vitro antifungal MIC, broth micro-dilution (NCCLS M-27A)", "type": "cell-based", "description": "as §1"}, "Candida albicans": {"system": "Candida albicans", "assay": "In vitro antifungal MIC, broth micro-dilution (NCCLS M-27A)", "type": "cell-based", "description": "as §1"}, "Aspergillus fumigatus": {"system": "Aspergillus fumigatus", "assay": "In vitro antifungal MIC for molds (NCCLS M-38P)", "type": "cell-based", "parameters": "mic against af: unit not given here", "description": "as §1, with “The working suspension (0.5×103 to 2.5×103) of the innoculum, prepared spectrophotometrically (0.5 mc Farland turbidity standard) was made by a 1:50 dilution followed by a 1:20 dilution of the seeded broth in RPMI-1640. Suitable controls were maintained simultaneously. Plates were incubated at 35° C. and observed visually at 24 hr for ca and 48 hr cn and spo.” left out, “In brief, cultures were grown on sabouraud dextrose agar at 35° C. until sporulation occurred. Spores were suspended in 0.85% normal saline and diluted in RPMI-1640 to yield 104 cf p/ml.” left out"}, "[2]": {"system": "trichophyton mentagrophytes", "assay": "In vitro antifungal MIC for molds (NCCLS M-38P)", "type": "cell-based", "description": "as §1, with “The working suspension (0.5×103 to 2.5×103) of the innoculum, prepared spectrophotometrically (0.5 mc Farland turbidity standard) was made by a 1:50 dilution followed by a 1:20 dilution of the seeded broth in RPMI-1640. Suitable controls were maintained simultaneously. Plates were incubated at 35° C. and observed visually at 24 hr for ca and 48 hr cn and spo.” left out, “In brief, cultures were grown on sabouraud dextrose agar at 35° C. until sporulation occurred. Spores were suspended in 0.85% normal saline and diluted in RPMI-1640 to yield 104 cf p/ml.” left out"}, "human spermatozoa": {"system": "human spermatozoa", "assay": "Spermicidal activity in vitro, Sander Cramer assay", "type": "cell-based", "description": "The spermicidal activity was determined by the Sander Cramer assay (Sander, F. V., Cramer, S. D., Human Fertility, (1941) Vol. 6, p-134) using physiological saline (0.85% NaCl). Aqueous solutions (1.0% i.e. 10 mg/ml) of different fractions of B. vitiensis were prepared in physiological saline, which were diluted further up to a concentration of 0.01%. Human semen (0.2 ml) was mixed with each test solution (1.0 ml) separately and vortexed for 10 s. A wet mount of each preparation was immediately examined under a phase contrast microscope. The lowest spermicidal concentration that completely immobilized 100% of the spermatozoa within 20 s. was referred to as MEC (minimum effective concentration). The activity was confirmed in three different semen samples with >50×10^6/ml sperm count and >50% motility."}, "[3]": {"conditions": "read at 48 hr, tested at 1000-1.95 mg/ml"}}}
{"substance": "Bivittoside-D [K007]", "values": [{"measurement": "antifungal activities (in words)", "setting": "[1]", "value": "significant antifungal activities"}, {"measurement": "mic against cn", "setting": "Cryptococcus neoformans", "value": 6.25, "unit": "mg/mL"}, {"measurement": "Mics against pathogenic fungi, Cn", "setting": "Cryptococcus neoformans; [3]", "value": 6.25, "unit": "μg/mi."}, {"measurement": "mic against spo", "setting": "Sporothrix schenckii", "value": 6.25, "unit": "mg/mL"}, {"measurement": "Mics against pathogenic fungi, spo", "setting": "Sporothrix schenckii; [3]", "value": 1.56, "unit": "μg/mi."}, {"measurement": "mic against ca", "setting": "Candida albicans", "value": 3.12, "unit": "µg/mL"}, {"measurement": "Mics against pathogenic fungi, ca", "setting": "Candida albicans; read at 24 hr, tested at 1000-1.95 mg/ml", "value": 3.12, "unit": "μg/mi."}, {"measurement": "mic against af", "setting": "Aspergillus fumigatus; Aspergillus fumigatus", "value": 12.57}, {"measurement": "Mics against pathogenic fungi, Af", "setting": "Aspergillus fumigatus; aspergillus fumigates, tested at 1000-1.95 mg/ml", "value": 12.5, "unit": "μg/mi."}, {"measurement": "mic against tm", "setting": "[2]", "value": 1.56, "unit": "mg/mL"}, {"measurement": "Mics against pathogenic fungi, tm", "setting": "[2]; tested at 1000-1.95 mg/ml", "value": 1.56, "unit": "μg/mi."}, {"measurement": "spermicidal activity (in words)", "setting": "human spermatozoa; in vitro model", "value": "promising spermicidal"}, {"measurement": "Mec (minimum effective concentration)", "setting": "human spermatozoa; lowest concentration that completely immobilized 100% of human spermatozoa within 20 s", "value": 0.05, "unit": "%"}]}
